Data: US8273890B2 (4SC AG, priority 2007, dated 2012)

Molecular target: T1, recombinant Plk1 protein (Homo sapiens, UniProt P53350)
T1 construct: histidine tag (N); made in house; host or cells: SF9 insect cells
Assay: Plk1 kinase activity inhibition assay (33P-ATP, alpha casein substrate, flash plates)
Format: biochemical
Details: enzymatic assay, 100 nM Li-ATP, 80 minutes at 30° C.
Method: The inhibition of Plk1 kinase activity can be measured using recombinant Plk1 protein expressed as an N-terminally histidine-tagged protein in SF9 insect cells and alpha casein as substrate. The Plk1 assay is run in 96 well plates by incubating 50 to 100 ng per well recombinant Plk1, 500 ng per well alpha casein (Sigma, # C-6780) as substrate, 10 μl of compound of invention (test compounds were dissolved as 20 mM solutions in dimethylsulfoxide (DMSO) and subsequently diluted), and 100 nM Li-ATP (including ^33P-ATP) in 100 μl of reaction buffer ([…] HEPES, pH 7.5; 3 mM MgCl2; 3 mM MnCl2; 3 μM Na-Orthovanadat; 1 mM DTT; 1 μg/ml PEG 8000) for 80 minutes at 30° C. The reactions are terminated by adding 100 μl stopping buffer (2% H3PO4 for 5 minutes) and are washed 3 times with washing solution (0.9% NaCl). Determining ^33P incorporated into the protein substrate alpha casein, the detection is based on the adhesion of the phosphorylated protein to the surface of scintillator-coated flash plates (Perkin Elmer, USA; #SMP-200). Phosphorylation of alpha casein is measured by counting the radioactivity bound to the plate for 60 sec. using a plate reader (Perkin Elmer, USA; Wallac Microbeta). By this method, the IC50 value of the Plk1 inhibition is determined as described above.

T1 sequence (P53350 whole entry): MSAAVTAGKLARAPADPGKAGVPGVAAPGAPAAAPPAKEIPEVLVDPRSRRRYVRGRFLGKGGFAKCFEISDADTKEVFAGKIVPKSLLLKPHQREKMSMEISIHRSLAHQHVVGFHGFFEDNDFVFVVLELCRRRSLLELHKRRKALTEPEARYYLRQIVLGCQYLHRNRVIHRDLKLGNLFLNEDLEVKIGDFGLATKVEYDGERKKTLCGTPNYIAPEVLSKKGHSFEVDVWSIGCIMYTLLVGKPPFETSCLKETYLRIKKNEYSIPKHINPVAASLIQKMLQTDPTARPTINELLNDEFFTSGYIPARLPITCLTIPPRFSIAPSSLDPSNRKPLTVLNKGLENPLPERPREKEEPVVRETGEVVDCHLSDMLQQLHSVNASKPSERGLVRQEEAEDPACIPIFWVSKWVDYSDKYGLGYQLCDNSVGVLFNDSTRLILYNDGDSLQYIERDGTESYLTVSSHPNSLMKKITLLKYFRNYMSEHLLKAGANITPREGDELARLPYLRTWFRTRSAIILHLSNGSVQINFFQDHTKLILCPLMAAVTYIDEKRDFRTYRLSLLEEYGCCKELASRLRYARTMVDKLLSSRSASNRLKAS

`C[C@@H](Oc1cc(-n2cnc3cc(CNS(C)(=O)=O)ncc32)sc1C(N)=O)c1ccccc1C(F)(F)F` [Example 90, 5-(6-{[(methylsulfonyl)amino]methyl}-3H-imidazo[4,5-c]pyridin-3-yl)-3-{(1R)-1-[2-(trifluoromethyl)phenyl]ethoxy}thiophene-2-carboxamide] gave an IC50 of 10 to 100 nM.
For `C[C@@H](Oc1cc(-n2cnc3cnc(CN4CCN(C5CCCCC5)CC4)cc32)sc1C(N)=O)c1ccccc1C(F)(F)F` [Example 106, 5-{6-[(4-cyclohexylpiperazin-1-yl)methyl]-1H-imidazo[4,5-c]pyridin-1-yl}-3-{(1R)-1-[2-(trifluoromethyl)phenyl]ethoxy}thiophene-2-carboxamide], the IC50 was 10 to 100 nM.
Compound `CCC(Oc1cc(-n2cnc3cnc(CN4CCN(C5CC5)CC4)cc32)sc1C(N)=O)c1ccccc1Cl` (stereo not shown) [Example 140, 3-{[1-(2-chlorophenyl)propyl]oxy}-5-{6-[(4-cyclopropylpiperazin-1-yl)methyl]-1H-imidazo[4,5-c]pyridin-1-yl}thiophene-2-carboxamide] has an IC50 of 10 to 100 nM.
In the case of `COCCN1CCN(Cc2cc3c(cn2)ncn3-c2cc(O[C@H](C)c3ccccc3C(F)(F)F)c(C(N)=O)s2)CC1` [Example 69, 5-(6-{[4-(2-methoxyethyl)piperazin-1-yl]methyl}-1H-imidazo[4,5-c]pyridin-1-yl)-3-{(1R)-1-[2-(trifluoromethyl)phenyl]ethoxy}thiophene-2-carboxamide], the IC50 is reported as under 10 nM.
In the case of `C[C@@H](Oc1cc(-n2cnc3cnc(CN4CCN(c5ccncc5)CC4)cc32)sc1C(N)=O)c1ccccc1Cl` [Example 131, 3-[(1R)-1-(2-chlorophenyl)ethoxy]-5-{6-[(4-pyridin-4-ylpiperazin-1-yl)methyl]-1H-imidazo[4,5-c]pyridin-1-yl}thiophene-2-carboxamide], the IC50 is reported as 10 to 100 nM.
With `C[C@@H](Oc1cc(-n2cnc3cnc(CN4CCN(S(C)(=O)=O)CC4)cc32)sc1C(N)=O)c1ccccc1C(F)(F)F` [Example 66, 5-(6-{[4-(methylsulfonyl)piperazin-1-yl]methyl}-1H-imidazo[4,5-c]pyridin-1-yl)-3-{(1R)-1-[2-(trifluoromethyl)phenyl]ethoxy}thiophene-2-carboxamide] the IC50 was under 10 nM.
In the case of `NC(=O)c1sc(-n2cnc3cnc(CO)cc32)cc1O[C@@H](CO)c1ccccc1Cl` [Example 146, 3-[(1R)-1-(2-chlorophenyl)-2-hydroxyethoxy]-5-[6-(hydroxymethyl)-1H-imidazo[4,5-c]pyridin-1-yl]thiophene-2-carboxamide], the IC50 is reported as under 10 nM.
`CCN1CCN(Cc2cc3c(cn2)ncn3-c2cc(O[C@H](C)c3ccccc3Cl)c(C(N)=O)s2)CC1` [Example 130, 3-[(1R)-1-(2-chlorophenyl)ethoxy]-5-{6-[(4-ethylpiperazin-1-yl)methyl]-1H-imidazo[4,5-c]pyridin-1-yl}thiophene-2-carboxamide] was tested, and the IC50 was under 10 nM.
`C[C@@H](Oc1cc(-n2cnc3ccncc32)sc1C(N)=O)c1ccccc1Cl` [Example 32, 3-[(1R)-1-(2-chlorophenyl)ethoxy]-5-(3H-imidazo[4,5-c]pyridin-3-yl)thiophene-2-carboxamide] showed an IC50 of under 10 nM.
Work on `C[C@@H](Oc1cc(-n2cnc3cnc(CN4CCN(CCC#N)CC4)cc32)sc1C(N)=O)c1ccccc1C(F)(F)F` [Example 82, 5-(6-{[4-(2-cyanoethyl)piperazin-1-yl]methyl}-1H-imidazo[4,5-c]pyridin-1-yl)-3-{(1R)-1-[2-(trifluoromethyl)phenyl]ethoxy}thiophene-2-carboxamide] yielded an IC50 of 10 to 100 nM.
`C[C@@H](Oc1cc(-n2cnc3cnc(CN4CCN(C(=O)N(C)C)CC4)cc32)sc1C(N)=O)c1ccccc1Br` [Example 133] was tested, and the IC50 was under 10 nM.
In the case of `NC(=O)c1sc(-n2cnc3cnccc32)cc1OCc1ccc(C(F)(F)F)cc1` [Example 36, 5-(1H-imidazo[4,5-c]pyridin-1-yl)-3-{[4-(trifluoromethyl)benzyl]oxy}thiophene-2-carboxamide], the IC50 is reported as 100 to 1000 nM.
`CCN1CCN(Cc2cc3c(cn2)ncn3-c2cc(OC(C)c3ccccc3C)c(C(N)=O)s2)CC1` (stereo not shown) [Example 150, 5-{6-[(4-ethylpiperazin-1-yl)methyl]-1H-imidazo[4,5-c]pyridin-1-yl}-3-[1-(2-methylphenyl)ethoxy]thiophene-2-carboxamide] was tested, and the IC50 was 10 to 100 nM.
`NC(=O)c1sc(-n2cnc3ccncc32)cc1OCc1c(Cl)cccc1Cl` [Example 43, 3-[(2,6-dichlorobenzyl)oxy]-5-(3H-imidazo[4,5-c]pyridin-3-yl)thiophene-2-carboxamide] gave an IC50 of 10 to 100 nM.
`C[C@@H](Oc1cc(-n2cnc3cnc(CO)cc32)sc1C(N)=O)c1ccccc1Cl` [Example 54, 3-[(1R)-1-(2-chlorophenyl)ethoxy]-5-[6-(hydroxymethyl)-1H-imidazo[4,5-c]pyridin-1-yl]thiophene-2-carboxamide] gave an IC50 of under 10 nM.
For `C[C@@H](Oc1cc(-n2cnc3cnc(CN4CCN(S(=O)(=O)N(C)C)CC4)cc32)sc1C(N)=O)c1ccccc1C(F)(F)F` [Example 71, 5-[6-({4-[(dimethylamino)sulfonyl]piperazin-1-yl}methyl)-1H-imidazo[4,5-c]pyridin-1-yl]-3-{(1R)-1-[2-(trifluoromethyl)phenyl]ethoxy}thiophene-2-carboxamide], the IC50 was 10 to 100 nM.
For `CN(CCN1CCOCC1)C(=O)c1cc2c(cn1)ncn2-c1cc(OCc2ccccc2C(F)(F)F)c(C(N)=O)s1` [Example 11, 1-(5-Carbamoyl-4-{[2-(trifluoromethyl)benzyl]oxy}-2-thienyl)-N-methyl-N-(2-morpholin-4-ylethyl)-1H-imidazo[4,5-c]pyridine-6-carboxamide], the IC50 was 1000 to 10000 nM.
In the case of `C[C@@H](Oc1cc(-n2cnc3cnc(CN4CCN(CC(=O)N(C)C)CC4)cc32)sc1C(N)=O)c1ccccc1C(F)(F)F` [Example 87, 5-[6-({4-[2-(dimethylamino)-2-oxoethyl]piperazin-1-yl}methyl)-1H-imidazo[4,5-c]pyridin-1-yl]-3-{(1R)-1-[2-(trifluoromethyl)phenyl]ethoxy}thiophene-2-carboxamide], the IC50 is reported as 10 to 100 nM.
With `C[C@@H](Oc1cc(-n2cnc3cnc(CN4CCN(C(=O)c5ccccc5)CC4)cc32)sc1C(N)=O)c1ccccc1C(F)(F)F` [Example 78, 5-{6-[(4-benzoylpiperazin-1-yl)methyl]-1H-imidazo[4,5-c]pyridin-1-yl}-3-{(1R)-1-[2-(trifluoromethyl)phenyl]ethoxy}thiophene-2-carboxamide] the IC50 was 10 to 100 nM.
For `CCN1CCN(Cc2cc3c(cn2)ncn3-c2cc(O[C@H](C)c3ccccc3C(F)(F)F)c(C(N)=O)s2)CC1` [Example 107, 5-{6-[(4-ethylpiperazin-1-yl)methyl]-1H-imidazo[4,5-c]pyridin-1-yl}-3-{(1R)-1-[2-(trifluoromethyl)phenyl]ethoxy}thiophene-2-carboxamide], the IC50 was under 10 nM.
With `CC(Oc1cc(-n2cnc3ccncc32)sc1C(N)=O)c1ccccc1C(F)(F)F` (stereo not shown) [Example 13, 5-(3H-Imidazo[4,5-c]pyridin-3-yl)-3-{1-[2-(trifluoromethyl)phenyl]ethoxy}thiophene-2-carboxamide] the IC50 was 10 to 100 nM.
Work on `CN1CCN(Cc2cc3ncn(-c4cc(OCc5ccccc5C(F)(F)F)c(C(N)=O)s4)c3cn2)CC1` [Example 37, 5-{6-[(4-methylpiperazin-1-yl)methyl]-3H-imidazo[4,5-c]pyridin-3-yl}-3-{[2-(trifluoromethyl)benzyl]oxy}thiophene-2-carboxamide] yielded an IC50 of 1000 to 10000 nM.
